Test results taken from patent US9233989B2, “Sila analogs of oxazolidinone derivatives and synthesis thereof” (Council of Scientific & Industrial Research, priority 2011, dated 2016).
Where two headings read alike, the source gives them in different places.

What was measured:
MRSA 0-2657 = test: MIC by microbroth dilution method; assay type: cell-based, S. aureus
E.coli 7632 = test: MIC by microbroth dilution method; assay type: cell-based
E.faecium 06076 VRE = test: MIC by microbroth dilution method; assay type: cell-based
E.faecium ATCC 19434 = test: MIC by microbroth dilution method; assay type: cell-based
E.faecium ATCC 49224 = test: MIC by microbroth dilution method; assay type: cell-based
[1] = system: S.aureus ATCC 49775 PVL + ve; assay type: cell-based
[2] = system: E.faecalis ATCC 51299(VRE&HLAR); test: MIC by microbroth dilution method; assay type: cell-based
S.aureus2 (PVL + ve) = assay type: cell-based, S. aureus
S.epidermis St 358 = test: MIC by microbroth dilution method; assay type: cell-based, S. epidermidis
MRSA DB 00026 = test: MIC by microbroth dilution method; assay type: cell-based, S. aureus
S.epidermidis ATCC 12228 = test: MIC by microbroth dilution method; assay type: cell-based
E.faecium 134 VRE = test: MIC by microbroth dilution method; assay type: cell-based
MRSE ATCC 35983 = test: MIC by microbroth dilution method; assay type: cell-based, S. epidermidis
[3] = system: S.aureus ATCC Newman 25904; test: MIC by microbroth dilution method; assay type: cell-based
S.aureus ATCC 29213 = test: MIC by microbroth dilution method; assay type: cell-based
E.faecium ATCC 3567 = test: MIC by microbroth dilution method; assay type: cell-based
S.aureus DB00026 = test: MIC by microbroth dilution method; assay type: cell-based
[4] = system: S.aureus 13709 LNZ mutant; assay type: cell-based
E.faecalis ATCC 19433 = test: MIC by microbroth dilution method; assay type: cell-based
MRSA 252 BAA 1720 = test: MIC by microbroth dilution method; assay type: cell-based, S. aureus
[5] = system: S.aureus ATCC 700699 Mu50; test: MIC by microbroth dilution method; assay type: cell-based
[6] = system: S.aureus ATCC 13709 Smith; test: MIC by microbroth dilution method; assay type: cell-based
MRSA ATCC 43300 = test: MIC by microbroth dilution method; assay type: cell-based, S. aureus
MRSA ATCC BAA 39 = test: MIC by microbroth dilution method; assay type: cell-based, S. aureus
MRSA 562 = test: MIC by microbroth dilution method; assay type: cell-based, S. aureus
E.faecalis SP 346 VRE = test: MIC by microbroth dilution method; assay type: cell-based
[7] = system: Mycobacterium tuberculosis H37Rv; test: Anti-TB activity, colorimetric resazurin microtiter assay; assay type: cell-based; details: read-out: MIC, Minimum Inhibitory Concentration (90%)
S.epidermidis ATCC 14990 = test: MIC by microbroth dilution method; assay type: cell-based
MRSE ATCC 35984 = test: MIC by microbroth dilution method; assay type: cell-based, S. epidermidis
E.faecalis ATCC 29212 = test: MIC by microbroth dilution method; assay type: cell-based
E.faecium 6A VRE = test: MIC by microbroth dilution method; assay type: cell-based
E.faecium ATCC 35667 = test: MIC by microbroth dilution method; assay type: cell-based
[8] = Mycobacterium tuberculosis, H37RV

Measured: MIC

COC(=O)NC[C@H]1CN(c2cc(F)c(N3CC[Si](C)(C)CC3)c(F)c2)C(=O)O1 [NDS-10053, (S)-methyl(3-(4-(4,4-dimethyl-1,4-azasilinan-1-yl)-3,5-difluorophenyl)-2-oxooxazolidin-5-yl)methylcarbamate]
16 µg/mL: E.faecium ATCC 19434 | [1] | [2] | S.aureus2 (PVL + ve) | S.epidermis St 358 | [3] | S.aureus ATCC 29213 | E.faecium ATCC 3567 | S.aureus DB00026 | [6] | MRSA ATCC 43300 | MRSA 562
> 32 µg/mL: E.coli 7632 | E.faecium 06076 VRE | [4]
4 µg/mL: E.faecium 6A VRE
8 µg/mL: MRSA 0-2657 | S.epidermidis ATCC 12228 | MRSA 252 BAA 1720 | [5] | MRSA ATCC BAA 39 | S.epidermidis ATCC 14990 | MRSE ATCC 35984 | E.faecium ATCC 35667
50 µg/mL: [7]; [8]
32 µg/mL: E.faecium ATCC 49224 | MRSA DB 00026 | E.faecium 134 VRE | MRSE ATCC 35983 | E.faecalis ATCC 19433 | E.faecalis SP 346 VRE | E.faecalis ATCC 29212

COC(=S)NC[C@H]1CN(c2cc(F)c(N3CC[Si](C)(C)CC3)c(F)c2)C(=O)O1 [NDS-10055, (S)—O-methyl(3-(4-(4,4-dimethyl-1,4-azasilinan-1-yl)-3,5-difluorophenyl)-2-oxooxazolidin-5-yl)methylcarbamothioate]
> 100 µg/mL: [7]; [8]

CC(=O)NC[C@H]1CN(c2cc(F)c(N3CC[Si](C)(c4ccccc4)CC3)c(F)c2)C(=O)O1 [NDS-10068, (S)—N-((3-(3,5-difluoro-4-(4-methyl-4-phenyl-1,4-azasilinan-1-yl)phenyl)-2-oxooxazolidin-5-yl)methyl)acetamide]
> 100 µg/mL: [7]; [8]

CCC(=O)NC[C@H]1CN(c2cc(F)c(N3CC[Si](C)(c4ccccc4)CC3)c(F)c2)C(=O)O1 [NDS-10069, (S)—N-((3-(3,5-difluoro-4-(4-methyl-4-phenyl-1,4-azasilinan-1-yl)phenyl)-2-oxooxazolidin-5-yl)methyl)propionamide]
50 µg/mL: [7]; [8]

CO[C@H]1/C=C/O[C@@]2(C)Oc3c(C)c(O)c4c(O)c(c(/C=N/N5CCN(C)CC5)c(O)c4c3C2=O)NC(=O)/C(C)=C\C=C\[C@H](C)[C@H](O)[C@@H](C)[C@@H](O)[C@@H](C)[C@H](OC(C)=O)[C@@H]1C [Rifampicin, reference compound]
0.3 µg/mL: [7]; inhibition of Mycobacterium tuberculosis H37Rv growth, 7H9-OADC media, 37° C., visual readout
